Laboratory results published in patent publication US9872875B2, “Component and method for treating viral disease” (Institut Pasteur of Shanghai, Chinese Academy of Sciences, priority 2012, dated 2018).
pEC50: −log10 of the molar value. Like-named read-outs stand apart in the source and are kept apart here.

Legend:
[1] = system: EV71 clinical isolate (EV71 FY 573); assay: EV71 clinical isolate replication in RD cells, viral load by quantitative RT-PCR; assay type: cell-based, Enterovirus 71
Experimental: RD cells were infected with EV71 clinical isolate (EV71 FY 573) in different E02 concentrations, at the MOI (multiplicity of infection) of 0.1. At 46 h post infection, viral RNA in culture supernatant was extracted, and the relative EV71 viral load was determined by quantitative RT-PCR. Procedures are detailed as follows:
(1) Cell seeding: 24 h prior to infection, RD cells were seeded in 96-well cell culture plates, 5×10^4 cells per well.
(2) Infection: • a. Virus pre-incubated with drug: virus stock solution was diluted to 5×10^4 TCID50/ml with DMEM and dispensed to 96-well plates at 100 μl per well, and 11 μl of E02 dissolved in DMEM at corresponding concentration or DMEM was added, and incubated at 37° C. for 1 h; • b. Cells pre-incubated with drug: cell culture medium was removed from 96-well plates, each well was added 100 μl of DMEM, then added 11 μl of E02 solution at corresponding concentration or DMEM, and incubated at 37° C. for 1 h; • c. After 1 h incubation, drug was discarded from cell culture plates, 111 μl of virus pre-incubated with drug was transferred to cell culture plates, and incubated at 37° C. for 1 h; • d. After incubation, the supernatant was discarded, cells were washed twice with 50 μl of DMEM, each well was added 180 μl of DMEM containing 2% FBS, 20 μl of E02 solution at corresponding concentration or DMEM. Cell culture plates were placed in 37° C., 5% (v/v) carbon dioxide incubator for incubation.
(3) Harvesting virus and RNA extraction: after infection, cells were cultured for 46 h, 140 μl of supernatant was transferred to 96-deep well plates, viral RNA extraction was performed using viral RNA extraction kit (QIAGEN QIAamp Viral RNA Mini Kit, cat #52906) according to standard operating procedures of the kit.
(4) Viral load measurements: EV71 5′UTR gene was detected using ABI Taqman one-step RT-PCR kit (ABI TaqMan® One-Step RT-PCR, cat #4309169) of ABI 7900HT 384-well plates PCR system. EV71 5′UTR quantitative RT-PCR thermal cycling program (Taqman);
(5) PCR CT values were converted to viral load using PCR standard curves (standard curves were obtained by CT values determined by performing RT-PCR on RNA extracted from viruses serially diluted with defined titers at 10-fold).

RD cells = assay: Cytotoxicity to RD cells (Celltiter Glo); assay type: cell-based
Experimental: Cytotoxicity to RD cells at different E02 concentrations was measured using Celltitr Glo reagents as follows:
(1) Cells seeding: 24 h prior to testing, RD cells were seeded in 96-well cell culture plates at 5×10^4 per well;
(2) Cells incubated with E02: medium was removed from cell culture plates, 180 μl of DMEM containing 2% FBS was added, and then added 20 μl of DMEM solution with corresponding concentration of E02, placed in 37° C., 5% CO2 incubator for incubation;
(3) After cultured for 46 h, cellular ATP levels were measured using the PROMEGA Celltitr Glo reagents according to reagent instructions.
PPADS is an E02 analog (Khakh, Burnstock et al., 2001; Burnstock 2004; Coddou, Yan et al. 2011) and has a similar inhibitory effect on P2X subtypes to that of E02. RD cells were infected with EV71 clinical isolate FY 573 at different PPADS concentrations to determine the inhibitory effect of PPADS on EV71 replication. Detailed procedure is the same as that in “1” of Example 1. In addition, cytotoxicity to RD cells at each concentration of PPADS was determined. Detailed procedure is the same as that in “1” of Example 6.

EV71 = assay: Inhibition of EV71 replication in RD cells at 0.1, 1, 10 and 100 μM (CPE, crystal violet); assay type: cell-based, Enterovirus 71; details: Table 8, antagonists
In short: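 RD cells infected with EV71 and treated at 0.1, 1, 10 and 100 μM were incubated 3˜4 days, crystal violet-stained and inspected microscopically for CPE. Cytotoxicity was checked in parallel by culturing uninfected RD cells with compound for 3˜4 days and examining cell-layer damage.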

P2X3 receptor = molecular target: T1, P2X3 receptor (Homo sapiens, UniProt P56373); details: Table 8, antagonists; cited from earlier work
T1 sequence (P56373 1-397): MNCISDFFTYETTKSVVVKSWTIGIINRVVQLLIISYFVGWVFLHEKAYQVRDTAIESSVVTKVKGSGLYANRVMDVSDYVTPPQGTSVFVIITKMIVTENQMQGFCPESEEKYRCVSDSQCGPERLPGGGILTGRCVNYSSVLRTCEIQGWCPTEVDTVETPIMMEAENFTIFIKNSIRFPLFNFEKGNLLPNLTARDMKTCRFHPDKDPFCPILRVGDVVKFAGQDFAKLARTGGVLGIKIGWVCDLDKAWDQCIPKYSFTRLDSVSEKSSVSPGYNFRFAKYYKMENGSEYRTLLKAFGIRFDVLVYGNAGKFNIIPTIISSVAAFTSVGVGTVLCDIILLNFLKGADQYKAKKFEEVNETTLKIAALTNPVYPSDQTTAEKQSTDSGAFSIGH

P2X4 receptor = molecular target: T2, P2X4 receptor (Homo sapiens, UniProt Q99571); details: Table 8, antagonists; cited from earlier work
T2 sequence (Q99571 1-388): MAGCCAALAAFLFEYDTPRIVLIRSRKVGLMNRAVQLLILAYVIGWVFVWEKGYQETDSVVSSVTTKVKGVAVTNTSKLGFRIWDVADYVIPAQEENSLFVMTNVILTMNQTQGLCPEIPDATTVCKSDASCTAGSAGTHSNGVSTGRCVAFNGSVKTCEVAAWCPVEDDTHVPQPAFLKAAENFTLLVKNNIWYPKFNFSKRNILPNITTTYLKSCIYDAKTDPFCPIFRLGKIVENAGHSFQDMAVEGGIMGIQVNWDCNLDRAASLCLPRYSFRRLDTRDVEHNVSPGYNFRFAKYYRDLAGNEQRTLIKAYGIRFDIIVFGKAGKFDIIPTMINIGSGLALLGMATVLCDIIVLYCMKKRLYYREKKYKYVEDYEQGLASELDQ

P2X6 receptor = P2X6 receptor (Homo sapiens, UniProt O15547); design: key: −: no activity; +: activating concentration >10 μM; ++: activating concentration 1~10 μM; +++: activating concentration <1 μM; details: Table 8, antagonists; cited from earlier work
P2X6 receptor, sequence (O15547 whole entry): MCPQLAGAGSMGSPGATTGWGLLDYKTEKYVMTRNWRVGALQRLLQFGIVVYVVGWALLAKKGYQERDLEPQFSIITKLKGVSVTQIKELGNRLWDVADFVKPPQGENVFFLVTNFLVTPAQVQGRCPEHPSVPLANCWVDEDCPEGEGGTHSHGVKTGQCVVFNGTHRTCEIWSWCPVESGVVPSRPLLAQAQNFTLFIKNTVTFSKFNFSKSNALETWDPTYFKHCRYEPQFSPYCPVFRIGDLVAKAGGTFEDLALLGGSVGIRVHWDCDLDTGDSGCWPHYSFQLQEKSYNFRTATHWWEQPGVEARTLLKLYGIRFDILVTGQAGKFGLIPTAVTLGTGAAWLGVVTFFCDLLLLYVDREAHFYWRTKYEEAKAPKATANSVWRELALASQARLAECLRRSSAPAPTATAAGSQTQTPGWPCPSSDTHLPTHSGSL

Row | SMILES | pEC50 ([1]; EV71 FY 573, MOI 0.1, 46 h, viral RNA in supernatant, read-out: EC50 (50% effective concentration) for inhibiting EV71 replication in RD cells) | concentrations not cytotoxic to RD cells (RD cells; PPADS) | Inhibition of EV71 replication (EV71) | P2X receptors 3 (P2X3 receptor) | P2X receptors 4 (P2X4 receptor) | P2X receptors 6 (P2X6 receptor) | concentration at which EV71 replication is reduced 10-fold ([1]; EV71 FY 573, RD cells, 46 h) [μM] | concentration at which EV71 replication is reduced 100-fold ([1]; EV71 FY 573, RD cells, 46 h) [µM] | concentration at which EV71 replication is reduced 1,000-fold ([1]; EV71 FY 573, RD cells, 46 h) [µM] | concentration at which EV71 replication is reduced 10,000-fold ([1]; EV71 FY 573, RD cells, 46 h) [µM] | pEC50 ([1]; Enterovirus A, EV71, RD, 46 h, read-out: EC50 (50% effective concentration) for inhibiting EV71 replication in RD cells) | pEC50 ([1]; Enterovirus A, EV71, RD cells, summary over RT-PCR, TCID50 and PFU tests, read-out: EC50 that inhibits EV71 clinical isolate (summary of Examples 1-3)) | cytotoxicity to RD cells (RD cells; 1×10^−6 to 1×10^4 μM of E02, 46 h, cellular ATP)
1 | Cc1nc(N=Nc2ccc(S(=O)(=O)O)cc2S(=O)(=O)O)c(COP(=O)(O)O)c(C=O)c1O [PPADS, pyridoxal-phosphate-6-azophenyl-2′, 4′-disulphonic acid] | 4.72 | lower than 64 μM | + (+: inhibitory concentration >300 nM) | ++ (++: inhibitory concentration = 10~300 nM) | − | + (+: inhibitory concentration >300 nM) |  |  |  |  |  |  | 
2 | Cc1ccc(C(=O)Nc2ccc(S(=O)(=O)O)c3cc(S(=O)(=O)O)cc(S(=O)(=O)O)c23)cc1NC(=O)c1cccc(NC(=O)Nc2cccc(C(=O)Nc3cc(C(=O)Nc4ccc(S(=O)(=O)O)c5cc(S(=O)(=O)O)cc(S(=O)(=O)O)c45)ccc3C)c2)c1 [E02, Suramin Sodium] |  |  | + (+: inhibitory concentration >300 nM) | + (+: inhibitory concentration >300 nM) | − | − | 3.44 | 5.19 | 6.45 | 7.63 | 5.16 | > 5.16 | no cytotoxicity
